Earlier results, collected in patent US20090175824A1, “Peptides for the treatment of HCV infections” (priority 2007, published 2009).

Settings: patients with hepatitis C

For `CC(C)(C)NC(=O)NC(C(=O)N1CC2C(C1C(=O)NC(CC1CCC1)C(=O)C(N)=O)C2(C)C)C(C)(C)C` (centres unmarked) [boceprevir, N-(4-amino-1-cyclobutyl-3,4-dioxobutan-2-yl)-3-(2-(3-tert-butylureido)-3,3-dimethylbutanoyl)-6,6-dimethyl-3-azabicyclo[3.1.0]hexane-2-carboxamide], the adverse events is listed as “infrequent and included headache, fever and myalgia” and the tolerability is listed as “well-tolerated”.
